Reference: patent publication US10881716B2, “Rapid-acting insulin formulation comprising a substituted anionic compound” (ADOCIA, priority 2012, dated 2021)
Counter-ions that a name gives are not always drawn.

Key:
human insulin = human insulin (Homo sapiens, UniProt P01308); test: Dissolution of human insulin at its isoelectric point (pH 5.3); type: binding; settings: translucent = Yes, turbid = No
Description: If an interaction exists, it is possible to dissolve the insulin at its isoelectric point. […] Solutions of compounds at different concentrations (8, 30 or 100 mg/mL) in water are prepared. […] The pH of the various solutions is adjusted to pH 5.3 by adding 200 mM acetic acid. The appearance of the solution is documented.

man = settings: subcutaneously-injected, diabetic patients; cited from earlier work
[1] = molecular target: T1, lispro insulin (R6 hexameric form) (Homo sapiens, UniProt P01308, K53P/P52K); test: Association state of lispro insulin evaluated by circular dichroism (CD signal at 251 nm); type: physicochemical; settings: D1, FIG. 11; Humalog + 9.3 mM citrate, 6 mM EDTA, 7.3 mg/ml Compound 1, 20 mg/ml Polyanionic compound 1
T1 construct: purchased Eli Lilly Humalog®
Source text: (§1) Circular dichroism makes it possible to study the secondary and quaternary structure of insulin. The insulin monomers are organized as dimers and as hexamers. […] Two hexameric forms exist, the R6 form and the T6 form. […] Loss of the CD signal at 251 nm is linked to destabilization of the hexamer (and thus the first sign of transformation of the hexamer into dimer).
as §1, with “dimer). […]” for “dimer).”

[2] = molecular target: human insulin (hexameric form) (Homo sapiens, UniProt P01308); test: Association state of human insulin evaluated by circular dichroism (CD signal at 275 nm); type: physicochemical; settings: D2, FIG. 12; rhINS + 9.3 mM citrate, 6 mM EDTA, 7.3 mg/ml Compound 1, 20 mg/ml Polyanionic compound 1
Description: (§2) Circular dichroism makes it possible to study the secondary and quaternary structure of insulin. The insulin monomers are organized as dimers and as hexamers. […] The CD signal at 275 nm is characteristic of the hexameric form of insulin (hexamer signal at about −300°, signal for the dimer between −200° and −250°, and signal for the monomer below −200°. Loss of the CD signal at 275 nm is therefore characteristic of destabilization of the hexamer into dimers or monomers.
as §2, with “−200°).” for “−200°.”

[3] = pH at which the insulin precipitates; cited from earlier work
[4] = molecular target: BSA (bovine serum albumin) (Bos taurus, UniProt P02769); test: Interaction with albumin, Centricon test (50 kDa membrane), UV assay of the filtrate; type: binding; settings: 2.43 mg/mL of polysaccharide or compound, 13.3 mg/mL of albumin in PBS, about 100 mM of salts
Description: F1: In order to determine the interactions between the various polysaccharides or compounds and a model protein such as albumin, a Centricon test (membrane with a cut-off threshold of 50 kDa) was performed. A solution of polysaccharide or of compound at 7.3 mg/mL was diluted three-fold in a solution of BSA (bovine serum albumin) at 20 mg/mL in PBS (concentration in the mixture: 2.43 mg/mL of polysaccharide or of compound, 13.3 mg/mL of albumin and about 100 mM of salts).
This mixture was centrifuged on a Centricon to make about half the volume pass through the membrane. The albumin is quantitatively retained on the Centricon membrane. The polysaccharides and compounds analyzed alone pass in large majority through the membrane (for the polysaccharides having the largest molar masses, about 20% of the polysaccharide is retained).
After centrifugation, the polysaccharide or compound is assayed by UV in the filtrate. The percentage of polysaccharide or compound bound to the albumin is calculated via the following equation:
(1-[polysaccharide or compound in the filtrate in the presence of albumin]/[polysaccharide or compound in the filtrate in the absence of albumin])*100

Sequence of human insulin (hexameric form) (P01308 25-54 limits assumed): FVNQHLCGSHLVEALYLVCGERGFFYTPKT
Sequence of human insulin (hexameric form) (P01308 90-110 limits assumed): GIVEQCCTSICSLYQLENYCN
Sequence of human insulin (P01308 25-54 limits assumed): as the sequence (P01308 25-54 limits assumed) above
Sequence of BSA (bovine serum albumin) (P02769 25-607): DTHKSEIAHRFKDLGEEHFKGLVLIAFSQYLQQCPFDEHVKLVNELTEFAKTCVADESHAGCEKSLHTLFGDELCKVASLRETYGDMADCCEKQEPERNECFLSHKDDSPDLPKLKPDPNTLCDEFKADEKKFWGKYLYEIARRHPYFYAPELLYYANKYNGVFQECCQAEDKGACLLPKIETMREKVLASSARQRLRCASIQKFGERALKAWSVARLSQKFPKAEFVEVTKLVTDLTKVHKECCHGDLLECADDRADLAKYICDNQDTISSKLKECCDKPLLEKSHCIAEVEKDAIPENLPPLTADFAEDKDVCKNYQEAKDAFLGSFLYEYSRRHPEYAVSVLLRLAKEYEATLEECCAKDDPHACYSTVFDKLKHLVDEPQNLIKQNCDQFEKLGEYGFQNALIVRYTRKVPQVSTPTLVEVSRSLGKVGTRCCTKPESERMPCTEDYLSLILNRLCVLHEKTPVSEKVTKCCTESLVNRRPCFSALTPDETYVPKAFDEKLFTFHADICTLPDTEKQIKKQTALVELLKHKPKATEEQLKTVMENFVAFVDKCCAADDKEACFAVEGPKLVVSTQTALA
T1 sequence (P01308 25-54 P52K/K53P limits assumed): as the sequence (P01308 25-54 limits assumed) above, with P28K, K29P counted along it

Dissolution of human insulin at 100 IU/mL with the compound at 4 mg/mL (human insulin)	Dissolution of human insulin at 100 IU/mL with the compound at 15 mg/mL (human insulin)	Dissolution of human insulin at 100 IU/mL with the compound at 50 mg/mL (human insulin)	% Polysaccharide or % Compound bound to BSA [4]	Compound	impact on the CD signal at 275 nm / hexameric structure of human insulin [2]	other results
No	No	Yes	–	Sodium Maltotriosemethylcarboxylate Functionalized with Sodium L-Tyrosinate [Compound 10]	–	–
–	–	–	–	human insulin: insulin obtained by synthesis or recombination, whose peptide sequence is the sequence of human insulin	–	hypoglycemiant effect only after (man): 60 min
–	–	–	–	O=C(O)CN(CCN(CC(=O)O)CC(=O)O)CC(=O)O [EDTA, reference compound]	total dissociation of the hexamer into dimers	impact on the CD signal at 251 nm / R6 hexameric form of lispro insulin [1]: completely destructure the R6 form of lispro insulin
–	–	–	–	Lispro insulin: rapid insulin analog, active principle of Humalog	–	isoelectric point [3]: 5.3
–	–	–	–	O=C(O)CC(O)(CC(=O)O)C(=O)O [citrate, sodium citrate]	no impact on the hexameric structure of human insulin	impact on the CD signal at 251 nm / R6 hexameric form of lispro insulin [1]: virtually no impact on the CD signal at 251 nm
No	No	Yes	43%	Sodium Maltooctaosemethylcarboxylate Functionalized with Sodium L-Phenylalaninate [Compound 9]	–	–
–	–	–	35%	Sodium Maltotriosemethylcarboxylate Functionalized with Sodium Alpha-Phenylglycinate [Compound 11]	–	–
No	No	Yes	27%	Sodium Maltopentaosemethylcarboxylate Functionalized with Sodium L-Phenylalaninate [Compound 8]	–	–
–	–	–	–	Sodium Maltotriosemethylcarboxylate [Polyanionic compound 1]	no impact on the hexameric structure of human insulin	–
